The subject of assay [1] is VEGF RTK. The following applies: cited from earlier work.
The test system of assay [2] is tumour models. The following applies: once-daily oral administration; range of models; cited from earlier work.
Assay [3] has as its system A431 human tumour xenografts. Description: A431 human vulval epidermoid carcinoma xenograft model. In kind it is in vivo, female athymic mice (Swiss nu/nu). The following applies: 20 days after randomisation; ZD6474 25 mg/kg/day p.o. once daily, bevacizumab 0.5 mg/kg i.p. twice a week; nude mice. The protocol:
Experiments were conducted on female athymic mice (Swiss nu/nu genotype, ≧6 weeks of age). A431 human tumour xenografts were established in the experimental mice by injecting 1×10^7 cells per mouse, mixed in a ratio of 1:1 with Matrigel, subcutaneously in the dorsal flank in a volume of 100 μl. Tumour volumes were assessed at least twice weekly by bilateral Vernier calliper measurements. Mice were randomised into treatment groups when the tumour volume reached 0.2-0.4 cm^3 (day 0, this was after 7 days in Example 1 below).
Tumour growth inhibition from the start of treatment was assessed by comparison of the differences in tumour volume (median and geometric mean) between control and treated groups.
Control animals (Group I) received drug vehicles alone.

As for `COc1cc2c(Nc3ccc(Br)cc3F)ncnc2cc1OCC1CCN(C)CC1` [ZD6474, 4-(4-bromo-2-fluoroanilino)-6-methoxy-7-(1-methylpiperidin-4-ylmethoxy)quinazoline], the “Inhibition of VEGF RTK” value in assay [1] is on record as “potent inhibitor”. Moreover, the Anti-tumour activity entry in assay [2] is listed as “broad-spectrum anti-tumour activity”. Besides, in assay [3], the “A431 tumor volume, Geometric mean” value worked out at 0.149 cm^3.
Take “Bevacizumab: recombinant humanised monoclonal antibody to the vascular endothelial growth factor ligand VEGF-A”: in assay [3], the “A431 tumor volume, Geometric mean” value stood at 0.553 cm^3.

Values taken from patent US20120107305A1, “Combination Therapy” (priority 2006, published 2012).
